Structures can show the parent of a compound that is named as a salt. Where two headings read alike, the source gives them in different places.
Tests used:
[1] = patients with nonsmall cell lung cancer; cited from earlier work
PDGFR-β = assay: Yeast growth assay, selection of specific RTK inhibition (OD 600 nm); type: cell-based, human; settings: 50 µM in the yeast culture
Excerpt: (§1) Selection of specific inhibition of Receptor Tyrosine Kinase activity in yeast.

RET = target: T1, RET (Homo sapiens, UniProt P07949); assay: as above; type: cell-based; settings: 50 µM in the yeast culture
T1 construct: preferably cytoplasmic domains of RTKs or fragments thereof, are expressed in the cytoplasm of host cells; expressed in transfected cells; host or cells: yeast (S. cerevisiae)
T1 sequence (P07949 658-1114 limits assumed): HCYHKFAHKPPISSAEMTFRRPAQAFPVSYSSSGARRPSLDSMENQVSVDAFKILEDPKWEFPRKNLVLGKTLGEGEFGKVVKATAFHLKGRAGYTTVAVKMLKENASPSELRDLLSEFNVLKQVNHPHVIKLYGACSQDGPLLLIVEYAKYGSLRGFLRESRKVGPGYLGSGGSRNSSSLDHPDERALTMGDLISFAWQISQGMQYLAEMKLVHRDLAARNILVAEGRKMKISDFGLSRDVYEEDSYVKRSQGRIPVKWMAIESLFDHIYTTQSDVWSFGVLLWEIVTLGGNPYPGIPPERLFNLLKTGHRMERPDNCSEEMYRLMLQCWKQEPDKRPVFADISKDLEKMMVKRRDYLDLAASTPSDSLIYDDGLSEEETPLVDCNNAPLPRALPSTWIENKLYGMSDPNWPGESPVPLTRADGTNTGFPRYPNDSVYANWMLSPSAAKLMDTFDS
Excerpt: as §1

KIT mutant D816F = target: T2, KIT mutant D816F (Homo sapiens, UniProt P10721, D816F); assay: Yeast cell-based growth rescue assay, KIT mutant; settings: 0.2 to 100 µM; yeast strain RLY09/Δptp1; PD180970 effect at the highest concentrations
T2 construct: preferably cytoplasmic domains of RTKs or fragments thereof, are expressed in the cytoplasm of host cells; expressed in transfected cells; host or cells: S. cerevisiae RLY09/Δptp1
Excerpt: (§2) Expression of wild-type KIT confers only a slight slow growth phenotype in yeast (in the RLY07 strain, under the full-length GAL promoter). Various mutations that occur in human GISTs or in mastocytosis were introduced in the Kit construct expressed in yeast. Expression of the various mutants caused reduced yeast growth but in various extent, likely correlating with various extent of activity (see graphs Figures 7a and 7b) . […] The yeast strain expressing the various Kit proteins in this experiment, was […] which all the Kit proteins produce a similar slow growth phenotype (see values of the window vector/RTK). The starting OD was optimized to obtain windows as similar as possible.

KIT mutant D816V = target: T3, KIT mutant D816V (Homo sapiens, UniProt P10721, D816V); assay: Yeast cell-based growth rescue assay, KIT mutant; settings: 0.2 to 100 µM; yeast strain RLY09/Δptp1; PD180970 effect at the highest concentrations
T3 construct: preferably cytoplasmic domains of RTKs or fragments thereof, are expressed in the cytoplasm of host cells; expressed in transfected cells; host or cells: S. cerevisiae RLY09/Δptp1
Excerpt: as §2

KIT mutant D816Y = target: T4, KIT mutant D816Y (Homo sapiens, UniProt P10721, D816Y); assay: Yeast cell-based growth rescue assay, KIT mutant; settings: 0.2 to 100 µM; yeast strain RLY09/Δptp1; PD180970 effect at the highest concentrations
T4 construct: preferably cytoplasmic domains of RTKs or fragments thereof, are expressed in the cytoplasm of host cells; expressed in transfected cells; host or cells: S. cerevisiae RLY09/Δptp1
Excerpt: as §2

D816V mutation = D816V mutation (Homo sapiens, UniProt P10721, D816V); settings: literature (29), cited from earlier work
HMC1.1 = settings: human cell line HMC1.1 expressing V560G mutation; literature (29); cited from earlier work
K642E = K642E (Homo sapiens, UniProt P10721, K642E); settings: like wt KIT, literature (25); cited from earlier work
N822H = N822H (Homo sapiens, UniProt P10721, N822H); settings: like wt KIT, literature (25); cited from earlier work
HMC-1 cells = settings: literature (23); cited from earlier work

Sequence of D816V mutation (P10721 26-976 D816V): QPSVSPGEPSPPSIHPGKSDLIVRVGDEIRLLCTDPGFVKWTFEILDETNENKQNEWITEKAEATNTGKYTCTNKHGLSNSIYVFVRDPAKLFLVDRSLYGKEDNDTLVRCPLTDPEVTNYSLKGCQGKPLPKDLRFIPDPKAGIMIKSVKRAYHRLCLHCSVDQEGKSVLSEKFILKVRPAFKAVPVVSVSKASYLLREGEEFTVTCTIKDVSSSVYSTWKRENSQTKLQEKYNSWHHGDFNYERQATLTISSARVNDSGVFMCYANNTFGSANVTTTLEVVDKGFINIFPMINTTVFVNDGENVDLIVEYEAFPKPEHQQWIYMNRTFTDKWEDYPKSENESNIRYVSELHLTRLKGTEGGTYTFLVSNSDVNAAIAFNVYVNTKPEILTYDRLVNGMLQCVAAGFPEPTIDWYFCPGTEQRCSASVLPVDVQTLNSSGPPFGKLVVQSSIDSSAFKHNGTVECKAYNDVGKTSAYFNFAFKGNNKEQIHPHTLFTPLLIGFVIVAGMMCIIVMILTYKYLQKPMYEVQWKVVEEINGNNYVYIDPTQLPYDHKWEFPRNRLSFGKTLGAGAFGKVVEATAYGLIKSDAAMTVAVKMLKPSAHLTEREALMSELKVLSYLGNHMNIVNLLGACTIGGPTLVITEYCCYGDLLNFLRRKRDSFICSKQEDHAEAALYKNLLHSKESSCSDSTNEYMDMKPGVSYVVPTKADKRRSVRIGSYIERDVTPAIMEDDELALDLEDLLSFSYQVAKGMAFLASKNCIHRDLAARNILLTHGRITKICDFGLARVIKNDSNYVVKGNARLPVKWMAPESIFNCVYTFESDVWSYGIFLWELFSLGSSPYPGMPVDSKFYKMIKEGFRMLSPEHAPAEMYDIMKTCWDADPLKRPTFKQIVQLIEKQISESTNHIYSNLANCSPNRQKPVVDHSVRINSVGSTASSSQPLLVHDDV
T3 sequence (P10721 546-976 D816V limits assumed): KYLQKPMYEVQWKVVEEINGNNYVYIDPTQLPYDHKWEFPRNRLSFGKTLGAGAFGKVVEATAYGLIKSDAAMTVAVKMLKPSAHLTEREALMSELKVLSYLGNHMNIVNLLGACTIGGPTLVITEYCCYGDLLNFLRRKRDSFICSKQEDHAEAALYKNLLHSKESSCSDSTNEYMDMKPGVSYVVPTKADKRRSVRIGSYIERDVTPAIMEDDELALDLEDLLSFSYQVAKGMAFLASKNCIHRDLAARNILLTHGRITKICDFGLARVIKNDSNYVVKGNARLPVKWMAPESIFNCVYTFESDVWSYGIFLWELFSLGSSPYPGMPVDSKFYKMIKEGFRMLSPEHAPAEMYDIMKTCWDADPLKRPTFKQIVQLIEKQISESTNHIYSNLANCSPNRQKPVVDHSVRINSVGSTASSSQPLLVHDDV
T2 sequence (P10721 546-976 D816F limits assumed): as the sequence (P10721 546-976 D816V limits assumed) above, with V271F counted along it
T4 sequence (P10721 546-976 D816Y limits assumed): as the sequence (P10721 546-976 D816V limits assumed) above, with V271Y counted along it
Sequence of K642E (P10721 26-976 K642E): as the sequence (P10721 26-976 D816V) above, with K617E, V791D counted along it
Sequence of N822H (P10721 26-976 N822H): as the sequence (P10721 26-976 D816V) above, with V791D, N797H counted along it

Row | Compound | patients have a rapid and often dramatic clinical response [1] [%] | restores growth of PDGFR-β-expressing yeast cells (PDGFR-β) | restores growth of cells expressing RET (RET) | sensitivity of mutant D816F in yeast (growth rescue) (KIT mutant D816F) | sensitivity of mutant D816V in yeast (growth rescue) (KIT mutant D816V) | sensitivity of mutant D816Y in yeast (growth rescue) (KIT mutant D816Y) | resistance of D816V mutant to inhibitor (D816V mutation) | resistance of D816V mutant to inhibitor (D816V mutation; listed as STI571) | apoptosis (HMC1.1) | sensitive in vitro (concentration) (K642E) [nM] | sensitive in vitro (concentration) (N822H) [nM] | KIT phosphorylation (HMC-1 cells) | cell proliferation (HMC-1 cells)
1 | COc1cc2ncnc(Nc3ccc(F)c(Cl)c3)c2cc1OCCCN1CCOCC1 [gefitinib] | 10 | – | – | – | – | – | – | – | – | – | – | – | –
2 | Cc1ccc(NC(=O)c2ccc(CN3CCN(C)CC3)cc2)cc1Nc1nccc(-c2cccnc2)n1 [Gleevec, imatinib mesylate] | – | specifically restores growth | not growth of cells expressing RET | resistant | resistant | resistant | resistant | resistance | induce apoptosis | 100 to 200 | 100 to 200 | – | –
3 | Cc1cc(Nc2ncc3cc(-c4c(Cl)cccc4Cl)c(=O)n(C)c3n2)ccc1F [PD180970] | – | – | – | slight effect | slight effect | slight effect | resistant | – | – | – | – | inhibits | inhibits
